The values that follow come from patent US20040235884A1, “Preventives/remedies for cholinergic neuropathy” (priority 2001, published 2004).

Assay [1] deals with high-affinity choline uptake of hippocampal synaptosome (membrane sample). Kind of assay: Effect on high-affinity choline uptake, [3H]choline, hippocampal synaptosome (membrane sample, P2 fraction) of AF64A-treated rats, in vitro incubation. It counts as biochemical, male Wistar rats. The conditions noted are these: membrane samples with choline uptake reduced by AF64A treatment; incubation 37° C. 30 min; FIG. 1. The method, then:
The action of the compound of the formula (I), particularly 4-acylamino-5,6,7,8-tetrahydrofuro[2,3-b]quinoline derivative, on the high-affinity choline uptake was examined using [^3H] choline and hippocampal synaptosome (membrane sample). AF64A (3 μmol), which is a neurotoxin specific to the cholinergic nerve, was administered to male Wistar rats into the cerebral ventricles bilaterally. The rats were subjected to an experiment after a recovery period of about 10 days. Hippocampal membrane samples (P2 fraction) were prepared by a conventional method from these animals and the animals that underwent a sham operation. These membrane samples were incubated in Ringer's solution with Compound A at each concentration or a solvent (vehicle) at 37° C. for 30 min. [^3H] Choline was added to the reaction mixture, and the mixture was incubated for 10 min. After the completion of the incubation, the membrane samples were filtrated on a glass fiber filter using a cell harvester and washed three times with a buffer. After thorough drying, a scintillator was added and the radioactivity of the membrane samples was measured on a liquid scintillation counter. Non-specific uptake was done under ice-cooling.

The subject of assay [2] is high-affinity choline transporter. The assay is described as follows: [3H]hemicholinium-3 binding to hippocampal membrane samples after pre-incubation with drug; Scatchard-plot. Also on record: species or system rats. The method, then:
The action of the compound of the formula (I), particularly 4-acylamino-5,6,7,8-tetrahydrofuro[2,3-b]quinoline derivative, relative to the density of the high-affinity choline transporter on the nerve terminal was examined using [^3H]hemicholinium-3, which is a specific labeled ligand of a high-affinity choline transporter (SYNAPSE No. 1, pp. 293-303, 1987). The aforementioned AF64A-treated rats were used in this test, too. Hippocampal membrane samples (P2 fraction) were prepared according to a conventional method from the AF64A-treated animals and the sham operation animals. These membrane samples were incubated in Ringer's solution with Compound A at each concentration or a solvent (vehicle) at 37° C. for 30 min. After the completion of the incubation, the drug was removed from the reaction mixture by centrifugation at 4° C. and the membrane samples were washed. The drug-treated membrane samples thus obtained were suspended in a solution containing [^3H] hemicholinium-3, and incubated overnight at 4° C. […] After thorough drying, a scintillator was added and the radioactivity of the membrane samples was measured on a liquid scintillation counter. […] For the analysis of binding mode, Scatchard-plot was used and the maximum binding Bmax and dissociation constant Kd were calculated.

For assay [3], the system named is high-affinity choline uptake of hippocampal membrane samples. Kind of assay: Sustention of action on high-affinity choline uptake: hippocampal membrane samples prepared after single or consecutive administration to AF64A-treated rats. Format: in vivo. The conditions noted are these: for HACU promotion: FIG. 6. An excerpt: (§1) Because the compound of the formula (I), particularly 4-acylamino-5,6,7,8-tetrahydrofuro[2,3-b]quinoline derivative, has the above-mentioned mechanism, the promoting action on the high-affinity choline uptake is considered to be dependent on the density of high-affinity choline transporters on the nerve terminal, and therefore, to show a shift independent of the elimination rate of a drug. To clarify this point, the sustained promoting action on the high-affinity choline uptake was examined by monitoring the changes in efficacy when the aforementioned AF64A-treated rats were subjected to single and consecutive administration(s) of a drug. In the test, Compound A at each concentration or a solvent (vehicle) was administered singly or consecutively to AF64A-treated animals and the animals that underwent a sham operation. After a given time, the animals were slaughtered and hippocampal membrane samples (P2 fraction) were prepared by a conventional method. These membrane samples were incubated in Ringer's solution supplemented with [^3H) choline at 37° C. for 10 min. After the completion of the incubation, the membrane samples were filtrated on a glass fiber filter using a cell harvester and washed three times with a buffer. After thorough drying, a scintillator was added and the radioactivity of the membrane samples was measured on a liquid scintillation counter. The non-specific uptake was that in the presence of hemicholinium-3 (10 μM) in a sodium ion free Ringer's solution. To establish the close relationship between the efficacy observed here and an improving action on the dementia symptoms, the improving effect on the water maze-learning disorder observed in the AF64A-treated rats was also studied at a given time after drug administration for 8 consecutive days.

For a further assay, the system named is AF64A-treated rats. The assay is described as follows: Water maze-learning disorder test in AF64A-treated rats. Format: in vivo. The following applies: FIG. 7.
Text: as §1, with “The non-specific uptake was that in the presence of hemicholinium-3 (10 μM) in a sodium ion free Ringer's solution. To establish the close relationship between the efficacy observed here and an improving action on the dementia symptoms, the improving effect on the water maze-learning disorder observed in the AF64A-treated rats was also studied at a given time after drug administration for 8 consecutive days.” left out

`Cc1oc2nc3c(c(NC(=O)CN4CCCC4=O)c2c1C)CCCC3` [Compound A, 2-(2-oxopyrrolidin-1-yl)-N-(2,3-dimethyl-5,6,7,8-tetrahydrofuro[2,3-b)quinolin-4-yl)acetamide]: the “choline uptake of hippocampal membrane samples” value in assay [1] is “significantly improved”. Moreover, the “action on maximum binding Bmax of hemicholinium-3 (transporter number on membrane surface)” value in assay [2] (Scatchard-plot analysis, FIG. 3) was “increasing action on the maximum binding Bmax”. The “binding of [3H]hemicholinium-3 on the hippocampal membrane sample” value in assay [2] (incubation in advance with drug, 37° C. 30 min, FIG. 2) is “increased dose-dependently”. In addition, the HACU promotion entry in assay [3] (24 h after administration for 4 consecutive days) is reported as “significant HACU promotion was not observed”; in assay [3] (24 h after administration for 16 consecutive days), “same level of improving effect as with the administration for 8 consecutive days”. In addition, the HACU promoting action result in assay [3] (administration for 8 consecutive days, 24 h from the final administration, FIG. 5) is reported as “significant HACU promoting action was observed”; in assay [3] (administration for 8 consecutive days, 48 h later, FIG. 5), “sustained”; in assay [3] (administration for 8 consecutive days, 72 h, FIG. 5), “disappeared”; in assay [3] (single administration, 1 h after administration, FIG. 4), “significant promotion of HACU”; in assay [3] (single administration, 3 h after administration, FIG. 4), “significant promotion of HACU”; in assay [3] (single administration, 24 h later, FIG. 4), “attenuated”. For the same compound, the “improving effect on learning disorder (water maze)” value in the assay with AF64A-treated rats (24 h after the administration for 8 consecutive days) and with AF64A-treated rats (48 h after the administration for 8 consecutive days) was “significant improving effect on learning disorder” in each case.
